# In patent US12104178B2, “DHFR tunable protein regulation” (Obsidian Therapeutics, Inc., priority 2017, dated 2024):
# Key:
# T cells = assay: IL12/IL2 effect on T cell expansion and IFNgamma positive CD4+/CD8+ T cells; type: cell-based, human
# Text: The goal of the study was to determine the T cell stimulation regimen and dose of IL12 needed to maximize T cell persistence and T cell differentiation in vitro, to mimic an in vivo adoptive cell transfer therapy regimen. The study recapitulates the design of the adoptive cell therapy regimen wherein the T cells were initially exposed to the antigen in vitro which results in activation followed by a resting phase and finally in vivo transfer where the T cells encounter the antigen again. T cells were stimulated CD3/CD28 beads or soluble CD3/CD28 on day 0 and the CD3/CD28 stimulus was washed off at the end of 48 hours. Cells were treated with a dose of IL12 ranging from 0.01-1000 ng/mL. On day 9, the Th1 phenotype of the cells was evaluated by examining the frequency of IFNgamma positive CD4+ cells and CD8+ cells. On day 14, cells were divided into two groups—one group received a second CD3/CD28 stimulation and a second group that was not stimulated. On day 16, the Th1 phenotype was evaluated in both groups using FACS.
# To test the requirement of IL2 and IL12 for T cells expansion and activation, T cells were stimulated with soluble CD3/CD28, CD3/CD28 Dynabeads or left unstimulated for two days. Each of these groups was further split into two sub groups. One sub group was treated with IL2 and 100 ng/ml of IL12 while the second sub group was treated with IL2 only for the duration of the stimulation. For the soluble CD3/CD28 stimulated cells, a third subgroup that was only treated with 100 ng/ml of IL12 was also included.
# The effect of IL12 on T cell activation was measured by determining the frequency of IFNgamma positive CD4+ and CD8+ T cells. IFNg is produced by activated T cells. Three different stimulation protocols were used. In the first protocol, cells were stimulated with CD3/CD28 dynabeads for 2 days, following which the beads were washed off and the cells were treated with varying concentrations of IL12 for 7 days (from day 2 to day 9). At day 9, cells were restimulated with soluble CD3/CD28 and the frequency of IFNgamma positive cells was determined by FACS. […] In the second protocol, following 2 day CD3/CD28 dynabeads stimulation, T cells were maintained in culture for a longer duration of 14 days i.e. from day 2 to day 16. At day 16, cells were restimulated with soluble CD3/CD28. At day 16, the frequency of IFNgamma positive cells was measured. […] In the third protocol, T cells were initially stimulated for 2 days with CD3/CD28 dynabeads and IL2, followed by treatment with IL2 only for 9 days (i.e. from day 2 to day 11), followed by IL12 treatment for 2 to 5 days. In the last two days of the experiment, cells were also restimulated with soluble CD3/CD28. IFNgamma positive CD4 and CD8 cells were measured using FACS. The third protocol mimics the environment that is presented to T cells in adoptive cell therapy, both during in vitro transduction and T cells expansion as well as the in vivo.
# Human T cells = assay: IL12 induced differentiation of human T cells, IFN gamma / CD3 flow cytometry; type: cell-based; details: IL12 treated (untreated 0.21)
# Protocol: IL12 promotes the differentiation of naïve T cells into Th1 cells which results in the secretion of IFN gamma from T cells. Human T cells were treated with IL12 or left untreated and analyzed by flow cytometry for the expression of IFN gamma and T cell marker CD3.
# NK-92 cells = assay: NK-92 activation markers with IL12 (Table 83); type: cell-based; details: IL12 10 ng/ml, 18 h
# Protocol: The dependency of the NK-92 cells on cytokines for activation was tested. […] The cells were cultured for 18 hours in the presence of IL12 (10 ng/ml) or varying concentrations of IL15 (100 ng/ml, 20 ng/ml, 4 ng/ml, 0.8 ng/ml, 0.16 ng/ml, 0.032 ng/ml, 0.0064 ng/ml and 0.00128 ng/ml). NK-92 cell activation in response to IL15 and IL12 treatment was evaluated by FACS analysis using a panel of markers whose increased expression is associated with NK activation. These include NKG2D, CD71, CD69; chemokine receptors such as CCR5, CXCR4, and CXCR3, Perforin, Granzyme B and Interferon gamma (IFNg). Prior to FACS analysis for IFNg, cells were cultured for 4 hours with Brefeldin A. NK cells respond to external stimuli such as cytokines in their environment through the phosphorylation of proteins JAK/STAT, ERK, and p38/MAPK pathways which are important for cell activation, signaling and differentiation pathways. The phosphorylation of AKT, STAT3 and STAT5 in response to cytokine addition was measured by FACS. Since phosphorylation events are transient NK-92 cells were treated with the cytokines for 15 or 60 minutes, prior to the analysis.
substance,measurement,setting,value
IL12: cytokine added to T cells or NK-92 cells,Requirement for T cell expansion (FIG. 37A),"T cells; 14 days, CD3/CD28 stimulation",may be dispensable
same,IL12 dose causing Th1-skewing and IFN gamma production,"T cells; T cells in vitro, day 16",0.1 ng/mL
same,"EC50, IFNgamma positive cells","T cells; first protocol (7 days IL12), CD8 cells",0.05 ng/mL
same,"EC50, IFNgamma positive cells","T cells; second protocol (14 days), CD4 cells",0.012 ng/mL
same,"EC50, IFNgamma positive cells","T cells; second protocol (14 days), CD8 cells",0.065 ng/mL
same,"EC50, IFNgamma positive cells","T cells; third protocol, IL12 final 5 days, CD4 cells",0.024 ng/mL
same,"EC50, IFNgamma positive cells","T cells; third protocol, IL12 final 5 days, CD8 cells",0.04 ng/mL
same,Percentage of IFN gamma positive T cells,Human T cells,22.3%
same,"Fold change in MFI vs untreated, CCR5",NK-92 cells,1.60
same,"Fold change in MFI vs untreated, Granzyme",NK-92 cells,1.87
same,"Fold change in MFI vs untreated, IFNg",NK-92 cells,1.74
same,"Fold change in MFI vs untreated, Perforin",NK-92 cells,1.67
same,"Fold change vs untreated, IFNg (supernatant)",NK-92 cells,666.15
